Patent US10100016B2, “Condensed ring derivative, and preparation method, intermediate, pharmaceutical composition and use thereof” (SHANGHAI YINGLI PHARMACEUTICAL CO., LTD., priority 2015, dated 2018)

Target: hURAT1 (Homo sapiens (Human), UniProt Q96S37)
Assay: 14C-uric acid transport inhibition in transfected HEK293/hURAT1 cells
Type: cell-based
Conditions: 14C-uric acid uptake, 10 mins incubation, read-out: IC50 value against hURAT1
Procedure: Human embryonic kidney cells (HEK293) was incubated in DMEM tissue culture medium, at 37° C., under 5% CO2 and 95% air atmosphere. […] Transfected HEK293/hURAT1 cells were used to the test for ^14C-uric acid transport activity.
The uric acid [8-14C] […] The incubating solution was removed after 10 mins incubation, followed by adding 100 μL cold washing buffer, after washing with this buffer for 3 times, the buffer was completely removed from the well.

hURAT1, sequence (Q96S37 whole entry): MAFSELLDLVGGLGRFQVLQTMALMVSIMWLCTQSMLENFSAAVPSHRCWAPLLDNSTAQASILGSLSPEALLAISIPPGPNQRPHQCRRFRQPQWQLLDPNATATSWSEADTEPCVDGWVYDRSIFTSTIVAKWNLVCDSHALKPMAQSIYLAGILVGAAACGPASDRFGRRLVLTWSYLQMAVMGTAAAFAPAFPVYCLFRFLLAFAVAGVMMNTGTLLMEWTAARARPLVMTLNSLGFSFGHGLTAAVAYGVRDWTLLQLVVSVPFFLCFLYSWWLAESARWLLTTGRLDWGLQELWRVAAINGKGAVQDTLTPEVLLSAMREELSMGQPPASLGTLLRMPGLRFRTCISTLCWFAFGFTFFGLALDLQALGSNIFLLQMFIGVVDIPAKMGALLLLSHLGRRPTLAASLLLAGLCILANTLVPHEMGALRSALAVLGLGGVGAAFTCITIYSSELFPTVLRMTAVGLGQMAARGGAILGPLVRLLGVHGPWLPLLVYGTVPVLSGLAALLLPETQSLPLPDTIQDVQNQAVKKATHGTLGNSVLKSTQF

Row | IC50 [nM] | Structure (SMILES)
1 | 24 | CC(CC(=O)O)c1cc2c(-c3ccc(C#N)c4ccccc34)cncc2s1 (racemic) [Compound 42, 3-[4-(4-Cyanonaphthalen-1-yl)thieno[2,3-c]pyridin-2-yl] butyric Acid]
2 | 37 | CC(CC(=O)O)c1cc2cncc(-c3ccc(C#N)c4ccccc34)c2s1 (racemic) [Compound 52, 3-[7-(4-Cyanonaphthalen-1-yl)thieno[3,2-c]pyridine-2-yl]-butyric Acid]
3 | 2530 | N#Cc1ccc(-c2cncc3ccc(C(=O)O)cc23)cc1 [Compound 1, 4-(4-cyanophenyl)isoquinoline-6-carboxylic Acid]
4 | 327 | N#Cc1ccc(-c2cncc3ccc(CC(=O)O)cc23)c2ccccc12 [Compound 3, 2-[4-(4-Cyanonaphthalen-1-yl)isoquinolin-6-yl]acetic Acid]
5 | 214 | CC(C)(Oc1ccc2cncc(-c3ccc(C#N)cc3)c2c1)C(=O)O [Compound 6, 2{[4-(4-Cyanophenyl)isoquinolin-6-yl]oxy}-2-methylpropionic Acid]
6 | 57 | CC(C)(Sc1ccc2cncc(-c3ccc(C#N)cc3F)c2c1)C(=O)O [Compound 8, 2{[4-(4-Cyano-2-fluorophenyl)isoquinolin-6-yl]thio}-2-methylpropionic Acid]
7 | 127 | CC(C)(Sc1cc(F)c2cncc(-c3ccc(C#N)c4ccccc34)c2c1)C(=O)O [Compound 9, 2{[4-(4-Cyanonaphthalen-1-yl)-8-fluoroisoquinolin-6-yl]thio}-2-methylpropionic Acid]
8 | 19 | CC(C)(Sc1ccc2cncc(-c3cccc4c(C#N)cccc34)c2c1)C(=O)O [Compound 10, 2{[4-(5-Cyanonaphthalen-1-yl)isoquinolin-6-yl]thio}-2-methylpropionic Acid]
9 | 62 | CC(C)(Sc1ccc2cncc(-c3ccc(C#N)c4c3OCCO4)c2c1)C(=O)O [Compound 11, 2-{[4-(8-Cyano-2,3-dihydro-1,4-benzodioxan-5-yl)isoquinolin-6-yl]thio}-2-methylpropionic Acid]
10 | 71 | CC(C)(Sc1ccc2cncc(-c3ccc(C#N)c4ccc(F)cc34)c2c1)C(=O)O [Compound 12, 2-{[4-(4-Cyano-7-fluoronaphthalen-1-yl)isoquinolin-6-yl]thio}-2-methyl propionic Acid]
11 | 189 | CC(CC(=O)O)c1ccc2cncc(-c3ccc(C#N)cc3)c2c1 (centres unmarked) [Compound 13, 3-[4-(4-Cyanophenyl)isoquinolin-6-yl]butyric Acid]
12 | 24 | CC(CC(=O)O)c1ccc2cncc(-c3ccc(C#N)c4ccccc34)c2c1 (centres unmarked) [Compound 15, 3-[4-(4-Cyanonaphthalen-1-yl)isoquinolin-6-yl]butyric Acid]
13 | 15 | CC(Cc1ccc2cncc(-c3ccc(C#N)c4ccccc34)c2c1)C(=O)O (centres unmarked) [Compound 16, 3-[4-(4-Cyanonaphthalen-1-yl)isoquinolin-6-yl]-2-methyl propionic acid]
14 | 12 | CC(C)(Cc1ccc2cncc(-c3ccc(C#N)c4ccccc34)c2c1)C(=O)O [Compound 17, 3-[4-(4-Cyanonaphthalen-1-yl)isoquinolin-6-yl]-2,2-dimethyl propionic Acid]
15 | 100 | CC(Sc1ccc2cncc(-c3ccc(C#N)c4ccccc34)c2c1)C(=O)O (centres unmarked) [Compound 21, 2-{[4-(4-Cyanonaphthalen-1-yl)isoquinolin-6-yl]thio}propionic Acid]
16 | 55 | CC(C)(Sc1ccc2cncc(-c3ccc(C#N)c(Cl)c3)c2c1)C(=O)O [Compound 22, 2-{[4-(3-Chloro-4-cyanophenyl)isoquinolin-6-yl]thio}-2-methyl propionic Acid]
17 | 18 | CC(C)(Sc1ccc2cncc(-c3ccc(C#N)cc3Cl)c2c1)C(=O)O [Compound 23, 2-{[4-(2-Chloro-4-cyanophenyl)isoquinolin-6-yl]thio}-2-methyl propionic Acid]
18 | 18 | N#Cc1ccc(-c2cncc3ccc(SC4(C(=O)O)CCC4)cc23)c2ccccc12 [Compound 24, 1-{[4-(4-cyanonaphthalen-1-yl)isoquinolin-6-yl]thio}cyclobutane-1-carboxylic Acid]
19 | 119 | Cc1nn(Cc2c(Cl)cccc2Cl)c2cc(SC(C)(C)C(=O)O)ccc12 [Compound 26, 2-({1-[(2,6-dichlorophenyl)methyl]-3-methyl-1H-indazol-6-yl}thio)-2-methyl propionic Acid]
20 | 2860 | N#Cc1ccc(-c2cncc3cc(C(=O)O)sc23)c2ccccc12 [Compound 29, 7-(4-Cyanonaphthalen-1-yl)thieno[3,2-c]pyridin-2-formic Acid]
21 | 3420 | N#Cc1ccc(-c2cncc3cc(CC(=O)O)sc23)c2ccccc12 [Compound 31, 2-[7-(4-Cyanonaphthalen-1-yl)thieno[3,2-c]pyridin-2-yl]acetic Acid]
22 | 5400 | N#Cc1ccc(-c2cncc3cc(CC(=O)O)sc23)cc1 [Compound 32, 2-[7-(4-Cyanophenyl)thieno[3,2-c]pyridin-2-yl]acetic Acid]
23 | 42 | CC(C)(Cc1cc2cncc(-c3ccc(C#N)cc3)c2s1)C(=O)O [Compound 33, 3-[7-(4-Cyanophenyl)thieno[3,2-c]pyridin-2-yl]-2,2-dimethylpropionic Acid]
24 | 139 | CC(C)(Cc1cc2cncc(-c3ccc(C#N)c4ccccc34)c2s1)C(=O)O [Compound 34, 3-[7-(4-Cyanonaphthalen-1-yl)thieno[3,2-c]pyridin-2-yl]-2,2-dimethylpropionic Acid]
25 | 3470 | CC(C)(Cc1cc2c(Cc3c(Cl)cccc3Cl)cccc2s1)C(=O)O [Compound 40, 3-{4-[(2,6-Dichlorophenyl)methyl]-1-benzothiophen-2-yl]-2,2-dimethyl propionic Acid]
26 | 116 | CC(C)(C(=O)O)c1ccc2cncc(-c3ccc(C#N)c4ccccc34)c2c1 [Compound 49, 2-[4-(4-Cyanonaphthalen-1-yl)isoquinolin-6-yl]-2-methyl propionic acid]
27 | 971 | CC(C)(Sc1ccc2cnnc(-c3ccc(C#N)c4ccccc34)c2c1)C(=O)O [Compound 50, 2-{[4-(4-Cyanonaphthalen-1-yl)phthalazin-6-yl]thio}-2-methyl propionic Acid]
28 | 19 | CC(C)(Cc1ccc2cncc(-c3ccc(C#N)cc3)c2c1)C(=O)O [Compound 51, 3-[4-(4-Cyanophenyl)isoquinolin-6-yl]-2,2-dimethyl propionic Acid]
29 | 113 | CC(C)(Sc1ccncc1-c1ccc(C#N)c2ccccc12)C(=O)O [Verinurad (RDEA3170), reference compound]

Row | Structure (SMILES) | IC50 [nM]
30 | N#Cc1ccc(-c2cncc3ccc(CCC(=O)O)cc23)cc1 [Compound 2, 3-[4-(4-Cyanophenyl)isoquinolin-6-yl]propionic Acid] | 161
31 | CC(C)(Sc1ccc2cncc(-c3ccc(C#N)cc3)c2c1)C(=O)O [Compound 4] | 15
32 | N#Cc1ccc(-c2cncc3ccc(/C=C/C(=O)O)cc23)c2ccccc12 [Compound 14, (2E)-3-[4-(4-Cyanonaphthalen-1-yl)isoquinolin-6-yl]acrylic Acid] | 385
33 | Cc1nc(Cc2c(Cl)cccc2Cl)n2cc(CCC(=O)O)ccc12 [Compound 25, 3-{3-[(2,6-dichlorophenyl)methyl]-1-methylimidazole[1,5-a]pyridine-6-yl}propionic Acid] | 289
34 | CC(C)(Sc1ccc2nccn2c1-c1ccc(C#N)cc1)C(=O)O [Compound 27, 2-{[5-(4-Cyanophenyl)imidazo[1,2-a]pyridin-6-yl]thio}-2-methyl propionic Acid] | 1730
35 | N#Cc1ccc(-c2cncc3cc(CCC(=O)O)sc23)c2ccccc12 [Compound 30, 3-[7-(4-Cyanonaphthalen-1-yl)thieno[3,2-c]pyridin-2-yl]propionic acid] | 87
36 | CC(C)(Cc1cc2c(-c3ccc(C#N)c4ccccc34)cccc2s1)C(=O)O [Compound 38, 3-[4-(4-Cyanonaphthalen-1-yl)-1-benzothiophen-2-yl]-2,2-dimethyl propionic Acid] | 209
37 | CC(O)(CC(=O)O)c1cc2c(-c3ccc(C#N)c4ccccc34)cncc2s1 (centres unmarked) [Compound 41, 3-[4-(4-Cyanonaphthalen-1-yl)thieno[2,3-c]pyridin-2-yl]-3-hydroxyl butyric Acid] | 934
38 | CC(C)(Cc1cc2c(-c3ccc(C#N)c4ccccc34)cncc2s1)C(=O)O [Compound 47, 3-[4-(4-Cyanonaphthalen-1-yl)thieno[2,3-c]pyridin-2-yl]-2,2-dimethyl propionic Acid] | 18
